Literature values, collected in article PMC7395068, “The evolution of strategies to minimise the risk of human drug-induced liver injury (DILI) in drug discovery and development” (Archives of Toxicology, 2020).
Like-named read-outs stand apart in the source and are kept apart here.

Key:
HepG2 cells [1] = settings: cited from earlier work
[2] = cited from earlier work
human hepatocytes = settings: In vitro Assay; ref Xu 2008; cited from earlier work
[3] = tested on: THLE or HepG2 cells, isolated mitochondria, BSEP; settings: In vitro Assay; ref Aleo 2019; cited from earlier work
[4] = ref Chen 2016; cited from earlier work
HepG2 cells [5] = settings: In vitro Assay; ref O'Brien 2006; cited from earlier work
HepG2 cells [6] = settings: In vitro Assay; ref Persson 2013; cited from earlier work
PHH = settings: In vitro Assay; ref Proctor 2017; cited from earlier work
[7] = tested on: HepG2 C3A spheroid, BSEP, Glu/Gal in HepG2 cells, bioactivation; settings: In vitro Assay; ref Williams 2019; cited from earlier work
[8] = ref Chen 2011; cited from earlier work
[9] = tested on: HepG2 cells, primary human hepatocytes; settings: In vitro Assay; ref Garside 2014; cited from earlier work
hLiMTs = settings: In vitro Assay; ref Proctor 2017; cited from earlier work
rBsep = settings: In vitro Assay; ref Dawson 2012; cited from earlier work
[10] = tested on: THLE-Null and THLE-3A4 cells; settings: In vitro Assay; ref Gustafsson 2014; cited from earlier work
PHH spheroids = settings: In vitro Assay; ref Vorrink 2018; cited from earlier work
[11] = In vitro Assay, ref Tolosa 2012
[12] = assignment in Tolosa 2012, ref Tolosa 2012

OC[C@H]1O[C@@H](O[C@H]2[C@H](O)[C@@H](O)C(O)O[C@@H]2CO)[C@H](O)[C@@H](O)[C@H]1O (mixture of isomers) [lactose]
Structural based (HCI) (HepG2 cells [1]): -VE | In vivo DILI ([2]; in vivo): -VE

O=[N+]([O-])c1ccc(O)c([N+](=O)[O-])c1 [2,4 dinitrophenol]
Structural based (HCI) (HepG2 cells [1]; [11]): +VE | In vivo DILI ([2]; ref Tolosa 2012): +VE

CC(=O)Nc1cccc(O)c1 [3-acetamidophenol]
Structural based (HCI) (human hepatocytes): -VE | Structural based (HCI) (HepG2 cells [1]; [11]): -VE | In vivo DILI ([2]; ref O'Brien 2006): -VE | In vivo DILI ([2]; ref Tolosa 2012): -VE | In vivo DILI ([2]; ref Xu 2008): -VE

C#C[C@]1(O)CC[C@H]2[C@@H]3CCc4cc(O)ccc4[C@H]3CC[C@@]21C [17-a ethynylestradiol]
Structural based (HCI) (HepG2 cells [1]): +VE

NCC[C@H](O)C(=O)N[C@@H]1C[C@H](N)[C@@H](O[C@H]2O[C@H](CN)[C@@H](O)[C@H](O)[C@H]2O)[C@H](O)[C@H]1O[C@H]1O[C@H](CO)[C@@H](O)[C@H](N)[C@H]1O [amikacin]
Partition Hybrid HRM Score [3]: +VE | Ro2 Hybrid HRM Score [3]: +VE | Structural based (HCI) (HepG2 cells [1]; [11]): -VE | DILI +VE (5-8), DILI -VE (-4) [4]: -VE | DILI severity category [4]: vNo-DILI-Concern | In vivo DILI ([2]; ref Aleo 2019): -VE | In vivo DILI ([2]; ref Tolosa 2012): +VE

CN1[C@@H]2CC[C@H]1C[C@@H](OC(=O)C(CO)c1ccccc1)C2 (stereo partly drawn) [atropine]
Structural based (HCI) (HepG2 cells [1]): +VE

CC(C)(OO)c1ccccc1 [cumene hydroperoxide]
Structural based (HCI) (HepG2 cells [1]; [11]): +VE | In vivo DILI ([2]; ref Tolosa 2012): +VE

C[C@@H]1C[C@@H]([C@H](O)CC2CC(=O)NC(=O)C2)C(=O)[C@@H](C)C1 [cycloheximide]
Structural based (HCI) (HepG2 cells [1]): +VE | In vivo DILI ([2]; in vivo): +VE

NC(=O)OCC(COC(N)=O)c1ccccc1 [felbamate]
Structural based (HCI) (human hepatocytes): -VE | Structural based (HCI) (HepG2 cells [5]): +VE | Cluser analysis (HepG2 cells [6]): -VE | Structural based (HCI) (HepG2 cells [6]): -VE | PHH ATP <100uM (PHH): -VE | Bayesian Machine Learning [7]: +VE | DILI Score (FDA) (1-8) [8]: 7 | DILI +VE (5-8), DILI -VE (-4) [4]: +VE | DILI severity category [4]: vMost-DILI-Concern | Cluster 1-6 +VE Assay [9]: -VE | hLiMTs ATP <100uM (hLiMTs): -VE | Inhibition of rBsep cutoff<1& cmax u>.2 (rBsep): -VE | Inhibition of rBsep cutoff<3 (rBsep): -VE | In vivo DILI ([2]; […]): +VE | In vivo DILI ([2]; ref Dawson 2012): +VE | In vivo DILI ([2]; ref Garside 2014): +VE | In vivo DILI ([2]; ref Gustafsson 2014): +VE | In vivo DILI ([2]; ref O'Brien 2006): +VE | In vivo DILI ([2]; ref Persson 2013): +VE | In vivo DILI ([2]; ref Proctor 2017): +VE | In vivo DILI ([2]; ref Williams 2019): +VE | In vivo DILI ([2]; ref Xu 2008): +VE | THLE-Null [10]: -VE | THLE-Null/3A4 [10]: -VE

N[C@H]1C(O)O[C@H](CO)[C@H](O)[C@@H]1O (stereo partly drawn) [galactosamine]
Structural based (HCI) (HepG2 cells [1]; [11]): -VE | In vivo DILI ([2]; ref O'Brien 2006): +VE | In vivo DILI ([2]; ref Tolosa 2012): +VE

C[C@H](CCC(=O)NCC(=O)O)[C@H]1CC[C@H]2[C@@H]3[C@H](O)C[C@@H]4C[C@H](O)CC[C@]4(C)[C@H]3CC[C@]12C [glycochenodeoxycholate]
Structural based (HCI), In vitro Assay (HepG2 cells [1]; HepG2 HCI, ref Tolosa 2012): +VE | In vivo DILI [2, 12]: +VE

CCOC(=O)CC(SP(=S)(OC)OC)C(=O)OCC (stereo not drawn) [malathion]
Structural based (HCI), In vitro Assay (HepG2 cells [1]; HepG2 HCI, ref Tolosa 2012): +VE | In vivo DILI [2, 12]: +VE

[Cl][Hg][Cl] [mercury ii chloride]
Structural based (HCI), In vitro Assay (HepG2 cells [1]; HepG2 HCI, ref Tolosa 2012): +VE | In vivo DILI [2, 12]: +VE

CN(CCCC(=O)c1cccnc1)N=O [nnk]
Structural based (HCI), In vitro Assay (HepG2 cells [1]; HepG2 HCI, ref Tolosa 2012): +VE | In vivo DILI [2, 12]: +VE

C[n+]1ccc(-c2cc[n+](C)cc2)cc1 [paraquat]
Structural based (HCI), In vitro Assay (HepG2 cells [1]; HepG2 HCI, ref Tolosa 2012): +VE | In vivo DILI [2, 12]: +VE

Fc1ccc([C@@H]2CCNC[C@H]2COc2ccc3c(c2)OCO3)cc1 [paroxetine]
Structural based (HCI) (human hepatocytes): -VE | hLiMTs ATP <20 x Cmax (PHH spheroids): -VE | Structural based (HCI) (HepG2 cells [5]): -VE | Partition Hybrid HRM Score [3]: +VE | Ro2 Hybrid HRM Score [3]: -VE | PHH ATP <100uM (PHH): +VE (IC50 threshold of 100 µM) | Bayesian Machine Learning [7]: +VE | DILI Score (FDA) (1-8) [8]: 8 | DILI +VE (5-8), DILI -VE (-4) [4]: +VE | DILI severity category [4]: vLess-DILI-Concern | hLiMTs ATP <100uM (hLiMTs): +VE (IC50 threshold of 100 µM) | In vivo DILI ([2]; […]): -VE | In vivo DILI ([2]; ref Aleo 2019): +VE | In vivo DILI ([2]; ref O'Brien 2006): +VE | In vivo DILI ([2]; ref Proctor 2017): +VE | In vivo DILI ([2]; ref Vorrink 2018): -VE | In vivo DILI ([2]; ref Williams 2019): +VE | In vivo DILI ([2]; ref Xu 2008): -VE

Oc1c(Cl)c(Cl)c(Cl)c(Cl)c1Cl [pentachlorophenol]
Structural based (HCI) (HepG2 cells [1]): +VE | In vivo DILI ([2]; in vivo): +VE

CCCCOCCOCCOCc1cc2c(cc1CCC)OCO2 [piperonyl butoxide]
Structural based (HCI), In vitro Assay (HepG2 cells [1]; HepG2 HCI, ref Tolosa 2012): +VE | In vivo DILI [2, 12]: +VE

CCCC(CCC)C(=O)O [sodium valproate]
Structural based (HCI), In vitro Assay (HepG2 cells [1]; HepG2 HCI, ref Tolosa 2012): +VE

OC[C@@H](O)[C@@H](O)[C@H](O)[C@@H](O)CO [sorbitol]
Structural based (HCI) (human hepatocytes): -VE | Structural based (HCI) (HepG2 cells [1]; [11]): -VE | DILI +VE (5-8), DILI -VE (-4) [4]: -VE | DILI severity category [4]: vNo-DILI-Concern | In vivo DILI ([2]; ref O'Brien 2006): -VE | In vivo DILI ([2]; ref Tolosa 2012): -VE | In vivo DILI ([2]; ref Xu 2008): -VE

C[C@H](CCC(=O)NCCS(=O)(=O)O)[C@H]1CC[C@H]2[C@@H]3CC[C@@H]4C[C@H](O)CC[C@]4(C)[C@H]3CC[C@]12C [taurolithocholate]
Structural based (HCI), In vitro Assay (HepG2 cells [1]; HepG2 HCI, ref Tolosa 2012): +VE | In vivo DILI [2, 12]: +VE

CC(C)(C)OO [tert-butyl hydroperoxide]
Structural based (HCI), In vitro Assay (HepG2 cells [1]): +VE | In vivo DILI ([2]; in vivo): +VE

CC(=N)S [thioacetamide]
Structural based (HCI) (human hepatocytes): -VE | Structural based (HCI) (HepG2 cells [1]; [11]): -VE | In vivo DILI ([2]; ref O'Brien 2006): +VE | In vivo DILI ([2]; ref Tolosa 2012): +VE | In vivo DILI ([2]; ref Xu 2008): +VE

CCN(CC)CCOc1ccc2c(c1)C(=O)c1cc(OCCN(CC)CC)ccc1-2 [tilorone]
Structural based (HCI), In vitro Assay (HepG2 cells [1]; HepG2 HCI, ref Tolosa 2012): +VE | In vivo DILI [2, 12]: +VE

CC(c1cc2ccccc2s1)N(O)C(N)=O (stereo not drawn) [zileuton]
Structural based (HCI) (human hepatocytes): +VE | hLiMTs ATP <20 x Cmax (PHH spheroids): -VE | Structural based (HCI) (HepG2 cells [5]): +VE | Cluser analysis (HepG2 cells [6]): -VE | Structural based (HCI) (HepG2 cells [6]): +VE | PHH ATP <100uM (PHH): -VE | Bayesian Machine Learning [7]: +VE | DILI Score (FDA) (1-8) [8]: 5 | DILI +VE (5-8), DILI -VE (-4) [4]: +VE | DILI severity category [4]: vMost-DILI-Concern | Cluster 1-6 +VE Assay [9]: -VE | hLiMTs ATP <100uM (hLiMTs): -VE | Inhibition of rBsep cutoff<1& cmax u>.2 (rBsep): -VE | Inhibition of rBsep cutoff<3 (rBsep): -VE | In vivo DILI ([2]; […]): +VE | In vivo DILI ([2]; ref Dawson 2012): +VE | In vivo DILI ([2]; ref Garside 2014): +VE | In vivo DILI ([2]; ref Gustafsson 2014): +VE | In vivo DILI ([2]; ref O'Brien 2006): +VE | In vivo DILI ([2]; ref Persson 2013): +VE | In vivo DILI ([2]; ref Proctor 2017): +VE | In vivo DILI ([2]; ref Vorrink 2018): +VE | In vivo DILI ([2]; ref Williams 2019): +VE | In vivo DILI ([2]; ref Xu 2008): +VE | THLE-Null [10]: -VE | THLE-Null/3A4 [10]: -VE
